Measurements taken from US9695155B2, “Herbicidal substituted pyrimidinyloxy benzene compounds” (E. I. DU PONT DE NEMOURS AND COMPANY, priority 2013, dated 2017).

What was measured:
[1] = tested on: lambsquarters; assay: Test E preemergence; format: in vivo, Chenopodium album; conditions: for Lambsquarters plant response rating: scale 0 to 100 (0 no effect, 100 complete control)
Excerpt: (§1) Seeds of plant species selected from corn (Zea mays), soybean (Glycine max), velvetleaf (Abutilon theophrasti), lambsquarters (Chenopodium album), wild poinsettia (Euphorbia heterophylla), palmer pigweed (Amaranthus palmeri), waterhemp (common waterhemp, Amaranthus rudis), surinam grass (Brachiaria decumbens), large (Lg) crabgrass (Digitaria sanguinalis), Brazilian crabgrass (Digitaria horizontalis), fall panicum (Panicum dichotomiflorum), giant foxtail (Setaria faberii), green foxtail (Setaria viridis), goosegrass (Eleusine indica), johnsongrass (Sorghum halepense), ragweed (common ragweed, Ambrosia elatior), barnyardgrass (Echinochloa crus-galli), sandbur (southern sandbur, Cenchrus echinatus), arrowleaf sida (Sida rhombifolia), Italian ryegrass (Lolium multiflorum), dayflower (Virginia (VA) dayflower, Commelina virginica), field bindweed (Convolvulus arvensis), morningglory (Ipomoea coccinea), nightshade (eastern black nightshade, Solanum ptycanthum), kochia (Kochia scoparia), yellow nutsedge (Cyperus esculentus), cocklebur (common cocklebur, Xanthium strumarium), smartweed (ladysthumb smartweed, and hairy beggarticks (Bidens pilosa), were planted into a silt loam soil and treated preemergence with test chemicals formulated in a non-phytotoxic solvent mixture which included a surfactant.
(§2) At the same time, plants from these crop and weed species and also horseweed (Canada horseweed, Conyza canadensis), waterhemp_RES1, (ALS & Triazine resistant common waterhemp, Amaranthus rudis), and waterhemp_RES2, (ALS & HPPD resistant common waterhemp, Amaranthus rudis) were planted in pots containing Redi-Earth® planting medium (Scotts Company, 14111 Scottslawn Road, Marysville, Ohio 43041) comprising spaghnum peat moss, vermiculite, wetting agent and starter nutrients were treated with postemergence applications of test chemicals formulated in the same manner. Plants ranged in height from 2 to 18 cm for postemergence treatments (1- to 4-leaf stage). Treated plants and controls were maintained in a greenhouse for 14 to 21 days, after which time all species were compared to controls and visually evaluated. Plant response ratings, summarized in Table E, are based on a scale of 0 to 100 where 0 is no effect and 100 is complete control. A dash (-) response means no test result.

[2] = tested on: large (Lg) crabgrass; assay: Test E preemergence; format: in vivo, Digitaria sanguinalis; conditions: for Crabgrass, Large plant response rating: scale 0 to 100 (0 no effect, 100 complete control)
Excerpt: as §1, §2

[3] = tested on: goosegrass; assay: Test E preemergence; format: in vivo, Eleusine indica; conditions: for Goosegrass plant response rating: scale 0 to 100 (0 no effect, 100 complete control)
Excerpt: as §1, §2

[4] = tested on: johnsongrass; assay: Test E preemergence; format: in vivo, Sorghum halepense; conditions: for Johnsongrass plant response rating: scale 0 to 100 (0 no effect, 100 complete control)
Excerpt: as §1, §2

[5] = tested on: nightshade; assay: Test E preemergence; format: in vivo, Solanum ptycanthum; conditions: for Nightshade plant response rating: scale 0 to 100 (0 no effect, 100 complete control)
Excerpt: as §1, §2

[6] = tested on: yellow nutsedge; assay: Test E preemergence; format: in vivo, Cyperus esculentus; conditions: for Nutsedge, Yellow plant response rating: scale 0 to 100 (0 no effect, 100 complete control)
Excerpt: as §1, §2

[7] = tested on: hairy beggarticks; assay: Test E preemergence; format: in vivo, Bidens pilosa; conditions: for Beggarticks plant response rating: scale 0 to 100 (0 no effect, 100 complete control)
Excerpt: as §1, §2

[8] = tested on: ducksalad; assay: Test C flooded paddy test; format: in vivo, Heteranthera limosa; conditions: Flood, scale 0 to 100 (0 no effect, 100 complete control), 13 to 15 days
Method in brief: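 Flooded 3 cm over soil; compound into paddy water; depth kept constant. Greenhouse 13–15 d.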

[9] = 125 g ai/ha, scale 0 to 100, 0 no effect, 100 complete control
[10] = 250 g ai/ha, scale 0 to 100, 0 no effect, 100 complete control
[11] = preemergence, 125 g ai/ha, scale 0 to 100, 0 no effect, 100 complete control
[12] = 8 g ai/ha, scale 0 to 100, 0 is no effect, 100 is complete control
[13] = 8 g ai/ha, preemergence, scale 0 to 100, 0 is no effect, 100 is complete control

SMILES | Lambsquarters plant response rating ([1]; 31 g ai/ha) | Lambsquarters plant response rating ([1]; 62 g ai/ha) | Plant response rating, Lambsquarters [1, 9] | Crabgrass, Large plant response rating ([2]; 31 g ai/ha) | Crabgrass, Large plant response rating ([2]; 62 g ai/ha) | Plant response rating, Crabgrass, Large [2, 9] | Goosegrass plant response rating ([3]; 31 g ai/ha) | Goosegrass plant response rating ([3]; 62 g ai/ha) | Plant response rating, Goosegrass [3, 9] | Johnsongrass plant response rating ([4]; 31 g ai/ha) | Johnsongrass plant response rating ([4]; 62 g ai/ha) | Plant response rating, Johnsongrass [4, 9] | Nightshade plant response rating ([5]; 31 g ai/ha) | Nightshade plant response rating ([5]; 62 g ai/ha) | Plant response rating, Nightshade [5, 9] | Nutsedge, Yellow plant response rating ([6]; 31 g ai/ha) | Nutsedge, Yellow plant response rating ([6]; 62 g ai/ha) | Plant response rating, Nutsedge, Yellow [6, 9] | Beggarticks plant response rating ([7]; 31 g ai/ha, preemergence) | Plant response rating, Beggarticks [7, 11] | further results
Cc1cnc(Oc2cccc(C#N)c2-n2cc(C(F)(F)F)cn2)nc1 [Compound 180] | 98 | 100 | 100 | 90 | 98 | 100 | 70 | 90 | 98 | 0 | 50 | 75 | 75 | 98 | 98 | 0 | 30 | 60 | 10 | 40 | Plant response rating, Lambsquarters [1, 10]: 100; Plant response rating, Crabgrass, Large [2, 10]: 100; Plant response rating, Goosegrass [3, 10]: 100; Plant response rating, Johnsongrass [4, 10]: 80; Plant response rating, Nightshade [5, 10]: 100; Plant response rating, Nutsedge, Yellow [6, 10]: 75; Beggarticks plant response rating ([7]; 62 g ai/ha, preemergence): 20; Plant response rating, Beggarticks ([7]; preemergence, 250 g ai/ha, scale 0 to 100, 0 no effect, 100 complete control): 90
Cc1cnc(Oc2cccc(C#N)c2-n2cc(C#N)cn2)nc1 [Compound 90] | 75 | 50 | 100 | 40 | 75 | 98 | 0 | 5 | 50 | 0 | 0 | 15 | 10 | 80 | 80 | 0 | 0 | 0 | 5 | 30 | Lambsquarters plant response rating ([1]; 16 g ai/ha): 5; Crabgrass, Large plant response rating ([2]; 16 g ai/ha): 30; Goosegrass plant response rating ([3]; 16 g ai/ha): 0; Johnsongrass plant response rating ([4]; 16 g ai/ha): 0; Nightshade plant response rating ([5]; 16 g ai/ha): 10; Nutsedge, Yellow plant response rating ([6]; 16 g ai/ha): 0; Beggarticks plant response rating ([7]; 16 g ai/ha, preemergence): 0; Plant response rating, Beggarticks ([7]; Preemergence, 62 g ai/ha, scale 0 to 100, 0 no effect, 100 complete control): 10
FC(F)c1cccc(Oc2ncc(Cl)cn2)c1-n1cc(C(F)(F)F)cn1 [Compound 170] | 98 | 100 | 100 | 70 | 98 | 100 | 40 | 75 | 98 | 15 | 25 | 70 | 50 | 98 | 98 | 20 | 30 | 40 | 0 | 0 | Plant response rating, Lambsquarters [1, 12]: 0; Plant response rating, Crabgrass, Large [2, 12]: 0; Crabgrass, Large plant response rating ([2]; 16 g ai/ha): 0; Plant response rating, Goosegrass [3, 12]: 0; Plant response rating, Johnsongrass [4, 12]: 15; Plant response rating, Nightshade [5, 12]: 0; Plant response rating, Nutsedge, Yellow [6, 12]: 0; Plant response rating, Beggarticks [7, 13]: 0; Beggarticks plant response rating ([7]; 16 g ai/ha, preemergence): 0; Beggarticks plant response rating ([7]; 62 g ai/ha, preemergence): 0
NC(=S)c1cccc(Oc2ncc(Cl)cn2)c1-n1cc(Cl)cn1 [Compound 292] | 0 | 25 | 100 | 20 | 90 | 100 | 20 | 50 | 70 | 15 | 20 | 35 | 5 | 70 | 80 | 0 | 15 | 35 | 15 | 35 | Plant response rating, Lambsquarters [1, 12]: 0; Plant response rating, Crabgrass, Large [2, 12]: 0; Crabgrass, Large plant response rating ([2]; 16 g ai/ha): 0; Plant response rating, Goosegrass [3, 12]: 0; Plant response rating, Johnsongrass [4, 12]: 0; Plant response rating, Nightshade [5, 12]: 0; Plant response rating, Nutsedge, Yellow [6, 12]: 0; Plant response rating, Beggarticks [7, 13]: 0; Beggarticks plant response rating ([7]; 16 g ai/ha, preemergence): 0; Beggarticks plant response rating ([7]; 62 g ai/ha, preemergence): 15
Fc1cnc(Oc2cccc(C(F)F)c2-n2cc(C(F)(F)F)cn2)nc1 [Compound 164] | 75 | 98 | 100 | 35 | 75 | 100 | 5 | 20 | 75 | 0 | 10 | 70 | 50 | 80 | 95 | 0 | 0 | 20 | 0 | 20 | Plant response rating, Ducksalad ([8]; 31 g ai/ha): 0; Plant response rating, Ducksalad ([8]; 62 g ai/ha): 0; Plant response rating, Ducksalad ([8]; 125 g ai/ha): 75; Plant response rating, Ducksalad ([8]; 250 g ai/ha): 95; Crabgrass, Large plant response rating ([2]; 16 g ai/ha): 35; Beggarticks plant response rating ([7]; 16 g ai/ha, preemergence): 0; Beggarticks plant response rating ([7]; 62 g ai/ha, preemergence): 20
